# According to patent publication US8633182B2, “Indanyloxyphenylcyclopropanecarboxylic acids” (Boehringer Ingelheim International GmbH, priority 2012, dated 2014):
# Target: human GPR40 receptor (Homo sapiens, UniProt O14842)
# Assay: IP1 accumulation measurements using the IPOne assay system in 1321N1 cells stably expressing human GPR40 receptor
# Format: cell-based
# Conditions: IP1 accumulation (HTRF), 1321N1 cells stably expressing human GPR40, 1 hour stimulation at 37° C.
# Experimental: IP1 accumulation measurements using the IPOne assay system—1321N1 cells stably expressing human GPR40 receptor (Euroscreen, Belgium) are seeded 24 h before the assay in black clear-bottom collagen-coated or white 384-well plates in culture medium containing 10% FCS, 1% Na-Pyruvate and 400 μg/mL G418. IP1 is assayed according to the Manufacturer's description (Cisbio Bioassays, France). In brief, the assay is started by substitution of the culture medium by stimulation buffer (Hepes 10 mM, CaCl2 1 mM, MgCl2 0.5 mM, KCl 4.2 mM, NaCl 146 mM and glucose 5.5 mM, pH 7.4) without LiCl or with […]. Cells are stimulated for 1 hour at 37° C., 5 or 10% CO2 by addition of the compounds that are diluted in stimulation buffer containing LiCl yielding a final LiCl concentration of 50 mM. Assays are stopped by adding HTRF-conjugates (IP1-d2 and Anti-IP1 cryptate Tb) and lysis buffer, provided by the manufacturer. After an incubation time of 1 hour at room temperature plates are measured using an EnVision™, Perkin Elmer. The obtained fluorescence ratios at […] are then used to calculate the pEC50 values using GraphPad Prism 5 (Graphpad Software Inc, USA) or Assay Explorer 3.3 Software (Accelrys, Inc.) by interpolation using an IP1 reference curve and subsequent sigmoidal curve fitting allowing for a variable hill slope.
# Chain of human GPR40 receptor (O14842 whole entry): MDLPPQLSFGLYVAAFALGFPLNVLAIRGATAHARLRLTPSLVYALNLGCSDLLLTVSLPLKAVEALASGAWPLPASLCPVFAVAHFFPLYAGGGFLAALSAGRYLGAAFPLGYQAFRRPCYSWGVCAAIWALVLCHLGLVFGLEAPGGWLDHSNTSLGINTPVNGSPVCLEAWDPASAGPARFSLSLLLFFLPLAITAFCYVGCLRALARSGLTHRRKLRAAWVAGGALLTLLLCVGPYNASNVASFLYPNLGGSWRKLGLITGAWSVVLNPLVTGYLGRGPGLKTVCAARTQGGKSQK
row,Compound,EC50 [nM]
1,Cc1cc(OCC2CCS(=O)(=O)CC2)cc(C)c1-c1c(C#N)ccc2c1CC[C@H]2Oc1ccc([C@H]2C[C@@H]2C(=O)O)cc1 [Example 35],28
2,"O=C(O)C1CC1c1ccc(O[C@@H]2CCc3c2cccc3C(F)(F)F)cc1 (stereo in doubt) [Example 2, 2-[4-((R)-4-Trifluoromethyl-indan-1-yloxy)-phenyl]-trans-cyclopropanecarboxylic acid]",15
3,"COc1cc(O[C@@H]2CCc3c2cccc3C(F)(F)F)ccc1C1CC1C(=O)O (stereo in doubt) [Example 7, 2-[4-((R)-4-Trifluoromethyl-indan-1-yloxy)-2-methoxyphenyl]-trans-cyclopropanecarboxylic acid]",531
4,"O=C(O)[C@H]1C[C@@H]1c1ccc(O[C@@H]2CCc3c(-c4ccccc4-c4cocn4)ccc(F)c32)cc1 [Example 61, (1S,2S)-2-(4-((1R)-7-fluoro-4-(2-(oxazol-4-yl)phenyl)-2,3-dihydro-1H-inden-1-yloxy)-phenyl)cyclopropanecarboxylic acid]",28
5,O=C(O)C1CC1c1ccc(OC2CCc3c2ccc(C(F)(F)F)c3-c2ccc(OCC3(O)CCOCC3)cc2)cc1 (stereo not shown) [Example 63],7
6,"Cc1nc(-c2ccc(-c3c(C(F)(F)F)ccc4c3CC[C@H]4Oc3ccc([C@H]4C[C@@H]4C(=O)O)cc3)cc2)no1 [Example 64, (1S,2S)-2-(4-{(R)-4-[4-(5-Methyl-[1,2,4}oxadiazol-3-yl)-phenyl]-5-trifluoromethyl-indan-1-yloxy}-phenyl)-cyclopropanecarboxylic acid]",3
7,Cc1cc(O[C@@H]2CCOC2)cc(C)c1-c1ccc(F)c2c1CC[C@H]2Oc1ccc([C@H]2C[C@@H]2C(=O)O)cc1 [Example 25],13
8,O=C(O)[C@H]1C[C@@H]1c1ccc(O[C@@H]2CCc3c(-c4ccccc4-c4cnco4)ccc(F)c32)cc1 [Example 62],29
9,"O=C(O)[C@H]1C[C@@H]1c1ccc(O[C@@H]2CCc3c(-c4cncc5ccccc45)ccc(F)c32)cc1 [Example 46, (1S,2S)-2-(4-((1R)-7-fluoro-4-(isoquinolin-4-yl)-2,3-dihydro-1H-inden-1-yloxy)phenyl)cyclo-propanecarboxylic acid]",6
10,"Cc1cccc(C)c1-c1ccc(F)c2c1CC[C@H]2Oc1ccc(C2CC2C(=O)O)cc1 (stereo in doubt) [Example 33, 2-{4-[(R)-4-(2,6-Dimethyl-phenyl)-7-fluoro-indan-1-yloxy]-phenyl}-trans-cyclopropanecarboxylic acid]",2
11,COc1cccnc1-c1ccc(F)c2c1CC[C@H]2Oc1ccc([C@H]2C[C@@H]2C(=O)O)cc1 [Example 51],569
12,"CNC(=O)c1cc(C)c(-c2ccc(F)c3c2CC[C@H]3Oc2ccc([C@H]3C[C@@H]3C(=O)O)cc2)c(C)c1 [Example 19, (1S,2S)-2-{4-[(R)-4-(2,6-Dimethyl-4-methylcarbamoyl-phenyl)-7-fluoro-indan-1-yloxy]-phenyl}-cyclopropane-carboxylic acid]",13
13,Cc1cc(OCCCS(C)(=O)=O)cc(C)c1-c1ccc(F)c2c1CC[C@H]2Oc1ccc([C@H]2C[C@@H]2C(=O)O)cc1 [Example 11],9
14,Cc1cc(-c2nnnn2C)cc(C)c1-c1ccc(F)c2c1CC[C@H]2Oc1ccc([C@H]2C[C@@H]2C(=O)O)cc1 [Example 44],12
15,Cc1cc(O[C@@H]2CCN(S(C)(=O)=O)C2)cc(C)c1-c1ccc(F)c2c1CC[C@H]2Oc1ccc([C@H]2C[C@@H]2C(=O)O)cc1 [Example 23],13
16,O=C(O)[C@H]1C[C@@H]1c1ccc(O[C@@H]2CCc3c2cccc3C(F)(F)F)cc1 [Example 10],13
17,"Cc1cc(OC(C)(C)C(N)=O)cc(C)c1-c1ccc(F)c2c1CC[C@H]2Oc1ccc([C@H]2C[C@@H]2C(=O)O)cc1 [Example 30, (1S,2S)-2-(4-{(R)-4-[4-(1-Carbamoyl-1-methyl-ethoxy)-2,6-dimethyl-phenyl]-7-fluoro-indan-1-yloxy}-phenyl)-cyclopropanecarboxylic acid]",18
18,Cc1cc(OCCN2CCCS2(=O)=O)cc(C)c1-c1ccc(F)c2c1CC[C@H]2Oc1ccc([C@H]2C[C@@H]2C(=O)O)cc1 [Example 22],12
19,"Cc1cc(OCC2(S(C)(=O)=O)CC2)cc(C)c1-c1ccc(F)c2c1CC[C@H]2Oc1ccc([C@H]2C[C@@H]2C(=O)O)cc1 [Example 18, (1S,2S)-2-(4-{(R)-7-Fluoro-4-[4-(1-methanesulfonyl-cyclopropylmethoxy)-2,6-dimethyl-phenyl]-indan-1-yloxy}-phenyl)-cyclopropane-carboxylic acid]",5
20,O=C(O)[C@H]1C[C@@H]1c1ccc(O[C@@H]2CCc3c(-c4ccnc5ccccc45)ccc(F)c32)cc1 [Example 50],11
21,"O=C(O)[C@H]1C[C@@H]1c1ccc(O[C@@H]2CCc3c(-c4cccc5ncccc45)ccc(F)c32)cc1 [Example 48, (1S,2S)-2-(4-((1R)-7-fluoro-4-(quinolin-5-yl)-2,3-dihydro-1H-inden-1-yloxy)phenyl)cyclo-propanecarboxylic acid]",6
22,"Cc1cc(OCCCCS(C)(=O)=O)cc(C)c1-c1ccc(F)c2c1CC[C@H]2Oc1ccc([C@H]2C[C@@H]2C(=O)O)cc1 [Example 31, (1S,2S)-2-(4-{(R)-7-Fluoro-4-[4-(4-methanesulfonyl-butoxy)-2,6-dimethyl-phenyl]-indan-1-yloxy}-phenyl)-cyclopropanecarboxylic acid]",6
23,Cc1cc(OCC2(O)CCS(=O)(=O)CC2)cc(C)c1-c1ccc(F)c2c1CC[C@H]2Oc1ccc([C@H]2C[C@@H]2C(=O)O)cc1 [Example 39],6
24,Cc1cc(OC(C)(C)CO)cc(C)c1-c1ccc(F)c2c1CC[C@H]2Oc1ccc([C@H]2C[C@@H]2C(=O)O)cc1 [Example 26],8
25,O=C(O)[C@@H]1C[C@H]1c1ccc(O[C@@H]2CCc3c2cccc3C(F)(F)F)cc1 [Example 9],457
26,N#Cc1ncccc1-c1ccc(F)c2c1CC[C@H]2Oc1ccc([C@H]2C[C@@H]2C(=O)O)cc1 [Example 55],75
27,"O=C(O)[C@H]1C[C@@H]1c1ccc(O[C@@H]2CCc3cccc(F)c32)cc1 [Example 16, (1S,2S)-2-[4-((R)-7-Fluoro-indan-1-yloxy)-phenyl]-cyclopropanecarboxylic acid]",304
28,"Cc1ncc(-c2ccc(F)c3c2CC[C@H]3Oc2ccc([C@H]3C[C@@H]3C(=O)O)cc2)n1C [Example 57, (1S,2S)-2-(4-((1R)-4-(1,2-dimethyl-1H-imidazol-5-yl)-7-fluoro-2,3-dihydro-1H-inden-1-yloxy)phenyl)cyclopropanecarb oxylic acid]",1400
